The source made the active and inactive calls. Where a SMILES comes first, the peptide text is derived from it. [ ]: non-standard residue; d: D form. αMeP = C[C@@]1(C(=O)O)CCCN1

Series [1] has as its system SH-SY5Y. The experiment in a line: Neuroprotective against IFNgamma/LPS stimulated THP1 condition medium-induced neurotoxicity in human SH-SY5Y cells assessed as NO production per 10^6 cells at 1 uM for 1 hr followed by addition of THP1 conditioned medium by griess assay (reference value: 3.75 +/- 0.14 micromol/L). Format: functional.
For series [2], the system named is SH-SY5Y. The experiment in a line: Neuroprotective against IFNgamma/LPS stimulated THP1 condition medium-induced neurotoxicity in human SH-SY5Y cells assessed as NO production per 10^6 cells at 10 uM for 1 hr followed by addition of THP1 conditioned medium by griess assay (reference value: 3.75 +/- 0.14 micromol/L). The class given is functional. (Griess reagent forms a coloured azo dye with nitrite.)

The test system of series [3] is SH-SY5Y. The experiment in a line: Neuroprotective against IFNgamma/LPS stimulated THP1 condition medium-induced neurotoxicity in human SH-SY5Y cells assessed as NO production per 10^6 cells at 100 nM for 1 hr followed by addition of THP1 conditioned medium by griess assay (reference value: 3.75 +/- 0.14 micromol/L). Format: functional.
In series [4] the test system is SH-SY5Y. The series is described as follows: Effect on NO production in human SH-SY5Y cells by greiss assay. The class given is functional, cell-based.
Series [5] deals with SH-SY5Y. The experiment in a line: Neuroprotective against IFNgamma/LPS stimulated THP1 condition medium-induced neurotoxicity in human SH-SY5Y cells assessed as increase in nNOS expression at 100 uM pretreated for 1 hr followed by addition of THP1 conditioned medium by western blot analysis. The class given is functional, cell-based.
Series [6] deals with SH-SY5Y. The series is described as follows: Neuroprotective against IFNgamma/LPS stimulated THP1 condition medium-induced neurotoxicity in human SH-SY5Y cells assessed as decrease in iNOS expression at 100 uM pretreated for 1 hr followed by addition of THP1 conditioned medium by western blot analysis. Format: functional, cell-based. A general note: Immunoblotting shows a protein as a band on a membrane.

The test system of series [7] is SH-SY5Y. The series is described as follows: Neuroprotective activity against human SH-SY5Y cells assessed as inhibition of IFNgamma/LPS stimulated THP1 condition medium-induced cytotoxicity measured as cell viability at 100 uM for 1 hr followed by addition of THP1 conditioned medium for 24 hrs by LDH assay in presence of 1 uM dexamethasone. Format: functional, cell-based.

Series [8] in a line: Metabolic stability in human plasma assessed as half life by HPLC analysis. The class given is ADME, cell-free.
Series [9] concerns SH-SY5Y. The series is described as follows: Neuroprotective against IFNgamma/LPS stimulated THP1 condition medium-induced neurotoxicity in human SH-SY5Y cells assessed as reduced iNOS activity at 100 uM pretreated for 1 hr followed by addition of THP1 conditioned medium. Format: functional, cell-based.
Series [10] concerns SH-SY5Y. The experiment in a line: Cytotoxicity against human SH-SY5Y cells at 0.1 to 100 uM after 24 hrs by MTT assay. The class given is cell-based.
For series [11], the system named is SH-SY5Y. The experiment in a line: Neuroprotective against IFNgamma/LPS stimulated THP1 condition medium-induced neurotoxicity in human SH-SY5Y cells assessed as NO production per 10^6 cells at 10 nM for 1 hr followed by addition of THP1 conditioned medium by griess assay (reference value: 3.75 +/- 0.14 micromol/L). Format: functional.
For series [12], the system named is SH-SY5Y. The experiment in a line: Neuroprotective against IFNgamma/LPS stimulated THP1 condition medium-induced neurotoxicity in human SH-SY5Y cells assessed as NO production per 10^6 cells at 100 uM for 1 hr followed by addition of THP1 conditioned medium by griess assay (reference value: 3.75 +/- 0.14 micromol/L). Format: functional.
The subject of series [13] is SH-SY5Y. The experiment in a line: Neuroprotective activity against human SH-SY5Y cells assessed as inhibition of IFNgamma/LPS stimulated THP1 condition medium-induced cytotoxicity measured as cell viability at 100 uM for 1 hr followed by addition of THP1 conditioned medium for 24 hrs by LDH assay relative to control. Format: functional.
Series [14] has as its system SH-SY5Y. The series is described as follows: Neuroprotective against IFNgamma/LPS stimulated THP1 condition medium-induced neurotoxicity in human SH-SY5Y cells assessed as decrease in apoptosis at 100 uM for 1 hr followed by addition of THP1 conditioned medium by annexinV/PI staining based flow cytometry. The class given is functional, cell-based. (A flow cytometer gives signals particle by particle.)

The subject of series [15] is SH-SY5Y. The experiment in a line: Neuroprotective against IFNgamma/LPS stimulated THP1 condition medium-induced neurotoxicity in human SH-SY5Y cells assessed as increase in cytoplasmic IkappaBalpha level pretreated for 1 hr followed by addition of THP1 conditioned medium by western blot analysis. Format: functional, cell-based.
The test system of series [16] is SH-SY5Y. The series is described as follows: Neuroprotective against IFNgamma/LPS stimulated THP1 condition medium-induced neurotoxicity in human SH-SY5Y cells assessed as increase in nNOS activity at 100 uM pretreated for 1 hr followed by addition of THP1 conditioned medium. Format: functional, cell-based.
The subject of series [17] is SH-SY5Y. The series is described as follows: Neuroprotective against IFNgamma/LPS stimulated THP1 condition medium-induced neurotoxicity in human SH-SY5Y cells assessed as increase in cytoplasmic IkappaBalpha level at 100 uM pretreated for 1 hr followed by addition of THP1 conditioned medium by western blot analysis. Format: functional, cell-based.
For series [18], the system named is SH-SY5Y. The experiment in a line: Neuroprotective against IFNgamma/LPS stimulated THP1 condition medium-induced neurotoxicity in human SH-SY5Y cells assessed as inhibition of RelA/p65 nuclear translocation at 100 uM pretreated for 1 hr followed by addition of THP1 conditioned medium by western blot analysis. The class given is functional, cell-based.

With `C[C@@]1(C(=O)N[C@@H](CCCNC(=N)N)C(=O)O)CCCN1C(=O)CN` (H-Gly-[αMeP]-Arg-OH), the Activity in the series on SH-SY5Y [1] was 3.72 µmol/L; in the series on SH-SY5Y [2], 3.57 µmol/L; in the series on SH-SY5Y [3] it was 3.71 µmol/L; with SH-SY5Y [10], “Non-toxic”; in the series with SH-SY5Y [11] it was 3.78 µmol/L; in the series with SH-SY5Y [12], 2.92 µmol/L. The Activity in the series with SH-SY5Y [13] amounted to 70%. Further, the outcome in the series with SH-SY5Y [4] was inactive. Moreover, the result with SH-SY5Y [5] and in the series on SH-SY5Y [7] was Active. Further, the inhibition result in the series with SH-SY5Y [6], in the series on SH-SY5Y [9] and in the series with SH-SY5Y [14] was “Active” in each case. For the same molecule, the half-life (in general, the time needed for the level to fall by half in the phase considered) in series [8] is 132 h.

Take `C[C@@]1(C(=O)N[C@@H](CCCCN)C(=O)O)CCCN1C(=O)CN` (H-Gly-[αMeP]-Lys-OH): the Activity in the series with SH-SY5Y [1] is 3.74 µmol/L; in the series with SH-SY5Y [2], 2.98 µmol/L; in the series on SH-SY5Y [3] it was 3.68 µmol/L; in the series on SH-SY5Y [10], “Non-toxic”; with SH-SY5Y [11] it was 3.7 µmol/L; with SH-SY5Y [12], 2.65 µmol/L. Besides, the Activity in the series with SH-SY5Y [13] is 70%. Further, the outcome in the series on SH-SY5Y [4] was inactive. The result in the series on SH-SY5Y [5] and in the series with SH-SY5Y [7] was Active. The inhibition result in the series on SH-SY5Y [6], with SH-SY5Y [9] and with SH-SY5Y [14] was “Active” throughout. Further, the half-life in series [8] is 51.6 h.

Consider `CN1C(=O)[C@]23CC4=CC=C[C@H](O)[C@H]4N2C(=O)[C@@]1(CO)SS3`, for which the outcome in the series on SH-SY5Y [15] was Active.

With `N=C(N)NCCC[C@H](NC(=O)[C@@H]1CCCN1C(=O)CN)C(=O)O` (H-Gly-Pro-Arg-OH), the Activity in the series with SH-SY5Y [1] was 3.68 µmol/L; in the series on SH-SY5Y [2] it was 3.05 µmol/L; in the series with SH-SY5Y [3], 3.74 µmol/L; in the series with SH-SY5Y [11], 3.72 µmol/L; with SH-SY5Y [12], 2.64 µmol/L. The half-life in series [8] is 1.58 h.

Turning to `C[C@@]1(C(=O)N[C@@H](Cc2cnc[nH]2)C(=O)O)CCCN1C(=O)CN` (H-Gly-[αMeP]-His-OH), the result in the series with SH-SY5Y [16], in the series with SH-SY5Y [5], in the series on SH-SY5Y [7] and in the series on SH-SY5Y [17] was Active. Further, the Activity in the series with SH-SY5Y [1] is 3.74 µmol/L; with SH-SY5Y [2] it was 2.96 µmol/L; with SH-SY5Y [3] it was 3.76 µmol/L; in the series on SH-SY5Y [10], “Non-toxic”; in the series on SH-SY5Y [11], 3.81 µmol/L; in the series with SH-SY5Y [12], 2.38 µmol/L. The Activity in the series on SH-SY5Y [13] was 70%. Moreover, the outcome with SH-SY5Y [4] was inactive. Also, the inhibition result with SH-SY5Y [6], in the series with SH-SY5Y [9], with SH-SY5Y [18] and with SH-SY5Y [14] was “Active” in each case. Also, the half-life in [8] is 118 h.
